The results in this text go back to patent publication US20230357139A1, “SMALL MOLECULE INHIBITORS OF BACTERIAL TOXINS” (Artizan Biosciences, Inc., priority 2020, published 2023).

Test [1] deals with recombinant BFT (rBFT). The test can be described thus: NFF-3 cleavage assay. It is filed as biochemical, B. fragilis. As to conditions: rBFT pre-incubated with compound 30 minutes at 37° C., then NFF-3 for 24 hours; read-out: NFF3 IC50. The protocol:
A NFF-3 cleavage assay was used to test activity of recombinant BFT, before or after addition of various inhibitors. The NFF-3 cleavage assay was previously described by Goulas et al., PNAS, 2011, 108(5) 1856-1861, which is incorporated by reference herein in its entirety.
Initially, recombinant BFT (rBFT) (0.25, 0.5, 1, 2, 4, 8, or 16 μg/mL) was incubated at 37° C. with the fluorogenic substrate NFF-3 (Cayman Chemical) at a concentration of 2.5 μM, 5 μM, or 10 μM. After 18 hours, fluorescence was measured in a microplate fluorimeter.
Next, rBFT was pre-incubated with one or more test compounds at different concentrations for 30 minutes at 37° C. The rBFT-compound mixture was then added to NFF-3 and incubated for 24 hours at 37° C. Fluorescence was then measured in a microplate fluorimeter.

Test [2] addresses Gelatinase E (GelE) (Enterococcus faecalis (strain ATCC 700802 / V583), UniProt Q833V7). The test can be described thus: Gelatinase E activity assay (FRET peptide substrate). It is filed as biochemical. As to conditions: Table 11. As to the method: Gelatinase E (Gel E) was purified from bacterial culture supernatant from E. faecalis. E. faecalis was cultured aerobically in Todd Hewitt Broth overnight at 37° C. Nucleic acid was precipitated with 0.9% protamine solution, followed by protein precipitation with ammonium sulfate. Resuspended protein pellet was further subjected to purification using FPLC (phenyl Sepharose column). Fractions with gelatinase activity as determined by casein agar assay were pooled and further concentrated.
Different concentrations of test compound were incubated with purified GelE and FRET-based peptide substrate (390 MMP FRET Substrate 1; Anaspec AS-27077) in assay buffer at room temperature for 30 minutes. The fluorescence signal was determined by a plate reader.

Gelatinase E (GelE), sequence (Q833V7 193-510 limits assumed): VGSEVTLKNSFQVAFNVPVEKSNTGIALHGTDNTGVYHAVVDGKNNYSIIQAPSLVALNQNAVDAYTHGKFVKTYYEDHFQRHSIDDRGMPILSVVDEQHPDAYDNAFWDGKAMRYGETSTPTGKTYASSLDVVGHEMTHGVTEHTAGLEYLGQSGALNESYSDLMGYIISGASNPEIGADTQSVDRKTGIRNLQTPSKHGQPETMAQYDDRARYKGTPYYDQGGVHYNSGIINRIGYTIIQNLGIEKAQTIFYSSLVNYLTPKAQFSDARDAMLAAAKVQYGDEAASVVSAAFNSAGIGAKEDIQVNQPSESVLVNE

One may read the IC50 as the point on the concentration scale where inhibition reaches its midpoint. On to `O=C(NO)[C@@H](Cc1cccs1)N(Cc1ccc(OCCF)cc1)S(=O)(=O)c1ccc(O)cc1` [Example 100], for which the IC50 in test [1] stood at 150 nM.

In turn, `COc1ccc(S(=O)(=O)N(CC(=O)NO)Cc2ccccc2)cc1` [S] displayed an IC50 in test [2] of 204 nM.

For the molecule `C[C@H](C(=O)NO)N(CCc1ccccc1)S(=O)(=O)c1ccc(O)cc1` [Example 105], in test [1], the IC50 was determined as 90 nM.

In test [2], `CC(C)CN(CC(=O)NO)S(=O)(=O)c1ccc(OCCF)cc1` [Z] registered an IC50 of 246 nM.

As for `CC(C)C[C@H](C(=O)NN)N(Cc1cccnc1)S(=O)(=O)c1ccc(O)cc1` [Example 34], the IC50 in test [1] was found to be 28000 nM.

Turning to `CCCC[C@H](C(=O)NO)N(Cc1cccnc1)S(=O)(=O)c1ccc(O)cc1` [Example 44], the half-maximal inhibitory concentration (IC50) in test [1] amounted to 130 nM.

On to `COc1ccc(S(=O)(=O)N(Cc2cccnc2)CC(O)CSC(C)=O)cc1` (stereo not shown) [Example 75], for which, in test [1], the IC50 was more than 100000 nM.

In test [2], `CC(C)CN(CC(=O)NO)S(=O)(=O)c1ccc(Oc2ccccc2)cc1` [AA] had an IC50 of 1690 nM.

Molecule `CC(C)CN(CC(=O)NO)S(=O)(=O)c1ccc(OCC(F)F)cc1` [X] came in with an IC50 in test [2] of 180 nM.

Molecule `C=CCOc1ccc(S(=O)(=O)N(CC(=O)NO)CC(C)C)cc1` [R] yielded an IC50 in test [2] of 2420 nM.

`CC(C)[C@@H](C(=O)NO)N(Cc1ccccc1)S(=O)(=O)c1c(F)c(F)c(F)c(F)c1F` [Example 72]: the IC50 in test [1] came out at 637000 nM.

As for `CC[C@H](C(=O)NO)N(Cc1cccnc1)S(=O)(=O)c1ccc(O)c(Cl)c1` [Example 59], the IC50 in test [1] amounted to 4220 nM.

On to `CC(C)C[C@H](C(=O)NO)N(Cc1cccnc1)S(=O)(=O)c1ccc(C(N)=O)cc1` [Example 46], for which the IC50 in test [1] stood at 6100 nM.

As for `CC(C)C[C@H](C(=O)NO)N(Cc1cccnc1)S(=O)(=O)c1ccc(NC=O)cc1` [Example 49, (R)-2-((4-formamido-N-(pyridin-3-ylmethyl)phenyl)-sulfonamido)-N-hydroxy-4-methyl pentanamide], the IC50 in test [1] was 8200 nM.

For `CC(C)[C@@H](C(=O)NO)N(Cc1ccccc1)S(=O)(=O)c1cccc(C(F)(F)F)c1` [Example 69], the IC50 in test [1] was 691000 nM.

`Cc1ccc(CNC(=O)COc2ccc(S(=O)(=O)N(CC(=O)NO)CC(C)C)cc2)cc1` [AD]: the IC50 in test [2] amounted to 155 nM.

`Cc1ccccc1CNC(=O)COc1ccc(S(=O)(=O)N(CC(=O)NO)CC(C)C)cc1` [AL] gave an IC50 in test [2] of 218 nM.

`O=C(NO)[C@@H](CC(F)F)N(Cc1cccnc1)S(=O)(=O)c1ccc(O)cc1` [Example 48]: in test [1], the IC50 came to 14600 nM.

`CCOc1ccc(CN([C@H](Cc2cccs2)C(=O)NO)S(=O)(=O)c2ccc(O)cc2)cc1` [Example 81]: in test [1], the IC50 was 556 nM.

`COCC[C@H](C(=O)NO)N(Cc1cccnc1)S(=O)(=O)c1ccc(O)cc1` [Example 54]: in test [1], the IC50 came out at 400 nM.

As for `O=C(NO)[C@@H](Cc1cccs1)N(Cc1cccc(Cl)c1)S(=O)(=O)c1ccc(O)cc1` [Example 83], the IC50 in test [1] is 530 nM.

In the case of `CC(C)CN(CC(=O)NO)S(=O)(=O)c1ccc(OCC(=O)NCc2ccc(Cl)cc2)cc1` [AI], half-maximal inhibition in test [2] (IC50) was put at 164 nM.

As to `CCC(C)[C@H](C(=O)NO)N(Cc1cccnc1)S(=O)(=O)c1ccc(O)cc1` (stereo partly shown) [Example 36], the IC50 in test [1] was 240 nM.

Consider `CC(C)[C@H](C(=O)NO)N(Cc1cccnc1)S(=O)(=O)c1ccsc1` [Example 76], for which the half-maximal inhibitory concentration (IC50) in test [1] stood at 9930 nM.

As to `O=C(NO)[C@@H](Cc1cccs1)N(Cc1ccc(OC(F)(F)F)cc1)S(=O)(=O)c1ccc(O)cc1` [Example 77], the IC50 in test [1] is 150 nM.

`CC(C)C[C@H](C(=O)NO)N(Cc1cccnc1)S(=O)(=O)c1cccc(C(N)=O)c1` [Example 39]: in test [1], the IC50 amounted to 79300 nM.

Regarding `COc1cccc(CN([C@H](Cc2cccs2)C(=O)NO)S(=O)(=O)c2ccc(O)cc2)c1` [Example 89], the IC50 in test [1] stood at 185 nM.

As to `O=C(NO)[C@@H](Cc1cocn1)N(Cc1cccnc1)S(=O)(=O)c1ccc(O)cc1` [Example 67], the IC50 in test [1] came out at 4250 nM.

With `COc1ccc(C(C(=O)NO)N(Cc2ccc3[nH]ccc3c2)S(=O)(=O)c2ccc(O)cc2)cc1` (stereo not shown) [Example 93], the IC50 in test [1] was 117 nM.

For the molecule `O=C(NO)[C@@H](Cc1cccs1)N(Cc1ccc(Cl)cc1)S(=O)(=O)c1ccc(O)cc1` [Example 80], the IC50 in test [1] amounted to 290 nM.

As to `CC(C)C[C@H](C(=O)NO)N(Cc1cccnc1)S(=O)(=O)c1ccc(C#N)cc1` [Example 47], the IC50 in test [1] was 6090 nM.

On to `CC(C)CN(CC(=O)NO)S(=O)(=O)c1ccc(O)cc1` [Example 56], for which, in test [1], the IC50 is 4620 nM.

As for `CC(C)C[C@H](C(=O)NO)N(Cc1cccnc1)S(=O)(=O)c1ccc(C(=N)N)cc1` [Example 52], the IC50 in test [1] was 27900 nM.

With `CCC[C@H](C(=O)NO)N(CCc1ccc2[nH]ccc2c1)S(=O)(=O)c1ccc(O)cc1` [Example 112], the IC50 in test [1] is more than 10000 nM.

Consider `COc1ccc(S(=O)(=O)N(Cc2ccccc2)[C@H](C(=O)NO)C(C)C)cc1F` [Example 65], for which the IC50 in test [1] was 28500 nM.

For `CC(C)C[C@H](C(=O)NO)N(Cc1cccnc1)S(=O)(=O)c1ccc(C(C)O)cc1` (stereo partly shown) [Example 37], the concentration for half-maximal inhibition (IC50) in test [1] was determined as 49700 nM.

In the case of `CCC[C@@H](C(=O)NO)N(CCc1ccccn1)S(=O)(=O)c1ccc(O)cc1` [Example 78], the IC50 in test [1] came to 216 nM.

Turning to `COc1ccc(S(=O)(=O)N(Cc2cccnc2)[C@H](C(=O)NO)C(C)C)cc1` [Example 64], the IC50 in test [1] was found to be 8280 nM.

Consider `COC[C@H](C(=O)NO)N(Cc1cccnc1)S(=O)(=O)c1ccc(O)cc1` [Example 53], for which the IC50 in test [1] is 570 nM.

In the case of `Cc1ccc(CN([C@H](Cc2cccs2)C(=O)NO)S(=O)(=O)c2ccc(O)cc2)cc1` [Example 90], the IC50 in test [1] is 236 nM.

On to `CC[C@H](C(=O)NO)N(Cc1cccnc1)S(=O)(=O)CCNC(=O)CSC` [Example 70], for which, in test [1], the IC50 turned out to be 164000 nM.

On to `CC[C@H](C(=O)NO)N(Cc1cccnc1)S(=O)(=O)c1ccc(O)cc1F` [Example 57], for which the IC50 in test [1] worked out at 196 nM.

As to `O=C(NO)[C@@H](CO)N(Cc1cccnc1)S(=O)(=O)c1ccc(O)cc1` [Example 50], the IC50 in test [1] was 510 nM.

Consider `O=C(NO)[C@@H](Cc1cccs1)N(Cc1ccc(OC(F)F)cc1)S(=O)(=O)c1ccc(O)cc1` [Example 98], for which the IC50 in test [1] amounted to 1400 nM.

Take `CC[C@H](C(=O)NO)N(Cc1cccnc1)S(=O)(=O)c1ccc(O)c(F)c1` [Example 58]: the IC50 in test [1] was determined as 510 nM.

With `CC(=O)c1ccc(S(=O)(=O)N(Cc2cccnc2)[C@H](CC(C)C)C(=O)NO)cc1` [Example 38], in test [1], the IC50 amounted to 6130 nM.

With `Cc1cccc(CN([C@H](Cc2cccs2)C(=O)NO)S(=O)(=O)c2ccc(O)cc2)c1` [Example 84], the IC50 in test [1] was 491 nM.

`CC(C)C[C@H](C(=O)NO)N(Cc1cccnc1)S(=O)(=O)c1ccc(N)cc1` [Example 43]: the IC50 in test [1] was found to be 2990 nM.

Regarding `CC(C)C[C@H](C(=O)NO)N(Cc1cccnc1)S(=O)(=O)c1ccc(NS(C)(=O)=O)cc1` [Example 41, (R)—N-hydroxy-4-methyl-2-((4-(methylsulfonamido)-N-(pyridin-3-ylmethyl)phenyl)sulfonamido) pentanamide], the IC50 in test [1] stood at 24100 nM.

As for `CSCC[C@H](C(=O)NO)N(CCc1ccccc1)S(=O)(=O)c1ccc(O)cc1` [Example 92], in test [1], the IC50 amounted to 99 nM.

Turning to `CC(C)C[C@H](C(=O)NO)N(Cc1cccnc1)S(=O)(=O)c1ccc(-c2nnn[nH]2)cc1` [Example 51], the IC50 in test [1] is more than 200000 nM.

For the molecule `CC(C)[C@@H](C(=O)NO)N(Cc1ccccc1)S(=O)(=O)c1ccc(O)c(F)c1` [Example 68], in test [1], the half-inhibitory concentration (IC50) turned out to be 50100 nM.
